Assay results: ChEMBL document CHEMBL3352633, “β-Lactam estrogen receptor antagonists and a dual-targeting estrogen receptor/tubulin ligand” (J Med Chem, 2014)
pIC50: −log10 of the molar value. Calls of active or inactive are those of the source. The rule behind the calls is not given here.

Columns and labels:
MCF7 [1] = experiment: cells; settings: Homo sapiens, MCF7, 72 h
Estrogen receptor beta [2] = target: T1, Estrogen receptor beta (Homo sapiens, UniProt Q92731)
Description: (§1) Displacement of fluorescein-labeled estrogen from human recombinant ERbeta by fluorescence polarization based competitive binding affinity assay

Estrogen receptor [3] = target: T2, Estrogen receptor (Homo sapiens, UniProt P03372)
T2 sequence (P03372 whole entry): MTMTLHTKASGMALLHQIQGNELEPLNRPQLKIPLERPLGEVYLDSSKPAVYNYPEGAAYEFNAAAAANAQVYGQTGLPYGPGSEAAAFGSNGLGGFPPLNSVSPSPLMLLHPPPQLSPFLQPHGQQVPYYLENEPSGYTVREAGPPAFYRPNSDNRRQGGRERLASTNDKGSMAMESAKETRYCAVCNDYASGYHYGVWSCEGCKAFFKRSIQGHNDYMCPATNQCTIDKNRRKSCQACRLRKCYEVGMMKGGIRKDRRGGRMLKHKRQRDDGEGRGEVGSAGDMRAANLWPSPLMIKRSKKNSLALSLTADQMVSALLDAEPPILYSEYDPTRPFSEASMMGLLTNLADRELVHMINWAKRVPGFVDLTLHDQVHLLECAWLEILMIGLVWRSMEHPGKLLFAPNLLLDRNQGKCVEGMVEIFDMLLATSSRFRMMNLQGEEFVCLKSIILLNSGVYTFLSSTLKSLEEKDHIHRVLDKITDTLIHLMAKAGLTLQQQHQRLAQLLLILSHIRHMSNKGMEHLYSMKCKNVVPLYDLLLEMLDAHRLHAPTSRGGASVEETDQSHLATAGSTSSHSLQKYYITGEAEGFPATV
Description: (§2) Displacement of fluorescein-labeled estrogen from human recombinant ERalpha by fluorescence polarization based competitive binding affinity assay

Estrogen receptor beta [4] = target: T1, Estrogen receptor beta; experiment: Displacement of fluorescein-labeled estrogen from human recombinant ERbeta at 1 uM by fluorescence polarization based competitive binding affinity assay
Tubulin (Homo sapiens) = Tubulin (Homo sapiens) (UniProt P68371+Q9H4B7+P0DPH7+P68366+Q13509+Q71U36+P04350+Q3ZCM7+P07437+P68363+Q9BQE3+Q6PEY2+Q13885+Q9BVA1+Q9BUF5); experiment: Induction of tubulin depolymerization in human MCF7 cells at 1 uM after 4 hrs by sedimentation assay and Western blotting method; type: cell-based
[5] = target: T3, Estrogen receptor (Homo sapiens) (UniProt P03372); experiment: Displacement of fluorescein-labeled estrogen from human recombinant ERalpha at 1 uM by fluorescence polarization based competitive binding affinity assay
T3 sequence (whole entry): T2 sequence (P03372 whole entry)

MCF7 [6] = experiment: Reduction in Bcl-2 expression in human MCF7 cells at 10 uM after 48 hrs by SDS-PAGE and Western blot method; type: functional, cell-based
MCF7 [7] = experiment: Reduction in Bcl-2 expression in human MCF7 cells at 10 uM after 72 hrs by SDS-PAGE and Western blot method; type: functional, cell-based
MCF7 [8] = experiment: Induction of cell cycle arrest in human MCF7 cells assessed as accumulation at subG1 phase at 1 to 10 uM after 72 hrs by propidium iodide staining based flow cytometry (reference value: 3.7%); type: functional
MCF7 [9] = experiment: Reduction in Mcl-1 expression in human MCF7 cells at 10 uM after 72 hrs by SDS-PAGE and Western blot method; type: functional, cell-based
MCF7 [10] = experiment: Induction of cell cycle arrest in human MCF7 cells assessed as accumulation at G2/M phase at 1 to 10 uM after 24 hrs by propidium iodide staining based flow cytometry; type: functional
MCF7 [11] = experiment: Induction of cell cycle arrest in human MCF7 cells assessed as accumulation at subG1 phase at 1 to 10 uM after 24 hrs by propidium iodide staining based flow cytometry; type: functional
MCF7 [12] = experiment: Induction of cell cycle arrest in human MCF7 cells assessed as accumulation at subG1 phase at 1 to 10 uM after 48 hrs by propidium iodide staining based flow cytometry (reference value: 1.9%); type: functional
MCF7 [13] = experiment: Induction of cell cycle arrest in human MCF7 cells assessed as increase in accumulation at sub-G1 phase at >10 nM after 24 hrs by propidium iodide staining based flow cytometry; type: functional
Estrogen receptor [14] = target: T2, Estrogen receptor; remark: listed apart in the source
Description: as §2

MCF7 [15] = experiment: Induction of cell cycle arrest in human MCF7 cells assessed as accumulation at G2/M phase at 10 uM after 24 hrs by propidium iodide staining based flow cytometry; type: functional
Estrogen receptor beta [16] = target: T1, Estrogen receptor beta; remark: listed apart in the source
Description: as §1

[17] = target: T3, Estrogen receptor (Homo sapiens); experiment: Agonist activity at human recombinant ERalpha by FRET assay
Estrogen receptor [18] = target: T2, Estrogen receptor; experiment: Antagonist activity at human recombinant ERalpha by FRET assay
MCF7 [19] = experiment: Induction of cell cycle arrest in human MCF7 cells assessed as increase in accumulation at sub-G1 phase at 1 to 10 uM after 24 hrs by propidium iodide staining based flow cytometry; type: functional
MCF7 [20] = experiment: Induction of cell cycle arrest in human MCF7 cells assessed as accumulation at G2/M phase at >100 nM after 24 hrs by propidium iodide staining based flow cytometry; type: functional

T1 sequence (Q92731 whole entry): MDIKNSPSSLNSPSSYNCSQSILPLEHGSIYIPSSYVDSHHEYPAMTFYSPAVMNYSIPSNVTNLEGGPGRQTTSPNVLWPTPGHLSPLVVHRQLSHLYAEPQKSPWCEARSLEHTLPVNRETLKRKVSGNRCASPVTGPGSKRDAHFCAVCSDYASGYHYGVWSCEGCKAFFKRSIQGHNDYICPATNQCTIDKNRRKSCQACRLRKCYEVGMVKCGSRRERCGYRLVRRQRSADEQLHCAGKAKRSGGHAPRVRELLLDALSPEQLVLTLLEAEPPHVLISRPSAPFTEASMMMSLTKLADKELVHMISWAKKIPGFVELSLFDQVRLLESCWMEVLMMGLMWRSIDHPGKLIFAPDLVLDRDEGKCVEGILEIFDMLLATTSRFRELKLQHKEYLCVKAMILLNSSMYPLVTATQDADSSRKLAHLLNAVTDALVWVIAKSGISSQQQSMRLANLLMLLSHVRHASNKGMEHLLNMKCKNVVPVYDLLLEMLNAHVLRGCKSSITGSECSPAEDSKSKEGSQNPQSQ

| Compound | pIC50 (MCF7 [1]) | pIC50 (Estrogen receptor beta [2]) | pIC50 (Estrogen receptor [3]) | other results |
| --- | --- | --- | --- | --- |
| O=C1[C@@H](c2ccccc2)[C@H](c2ccc(O)cc2)N1c1ccc(O)cc1 (relative stereo) | < 4.30 | 6.01 | 6.64 | – |
| O=C1C[C@H](c2ccc(O)cc2)N1c1ccc(O)cc1 | < 4.30 | 4.25 | 4.89 | – |
| COc1cc([C@H]2[C@H](c3ccc(O)cc3)C(=O)N2c2ccc(O)cc2)cc(OC)c1OC (relative stereo) | < 4.30 | 3.84 | 4.74 | – |
| COc1ccc([C@H]2[C@H](C(O)c3ccc(O)cc3)C(=O)N2c2cc(OC)c(OC)c(OC)c2)cc1 (stereo partly specified) | 6.68 | 7.82 | 8.10 | inhibition (Estrogen receptor beta [4]): 94%; Activity (Tubulin (Homo sapiens)): Active; inhibition [5]: 93%; Activity (MCF7 [6]): Active; Activity (MCF7 [7]): Active; Activity (MCF7 [8]): 17%; Activity (MCF7 [9]): Active; Activity (MCF7 [10]): Active; Activity (MCF7 [11]): inactive; Activity (MCF7 [12]): 9.3% |
| COC(=O)Nc1nc2cc(C(=O)c3cccs3)ccc2[nH]1 | – | – | – | Activity (Tubulin (Homo sapiens)): Active |
| COc1ccc([C@H]2[C@H](C(O)c3ccc(OCCN4CCCC4)cc3)C(=O)N2c2cc(OC)c(OC)c(OC)c2)cc1 (stereo partly specified) | 5.42 | – | – | Activity (MCF7 [13]): Active; IC50 (Estrogen receptor [14]): Not Active; Activity (MCF7 [15]): Active; IC50 (Estrogen receptor beta [16]): Not Active |
| O=C1[C@@H](Oc2ccccc2)[C@H](c2ccc(O)cc2)N1c1ccc(O)cc1 (relative stereo) | < 4.30 | 5.92 | 6.85 | – |
| COc1ccc([C@H]2[C@H](C(O)c3ccc(O)cc3)C(=O)N2c2ccc(OC)cc2)cc1 (stereo partly specified) | 4.49 | – | – | inhibition (Estrogen receptor beta [4]): 75%; inhibition [5]: 37% |
| O=C1[C@@H](C(O)c2ccc(O)cc2)[C@H](c2ccc(O)cc2)N1c1ccc(O)cc1 (stereo partly specified) | 4.31 | – | – | inhibition (Estrogen receptor beta [4]): 43%; inhibition [5]: 40% |
| O=C1N(c2ccc(O)cc2)[C@@H](c2ccc(O)cc2)C1(c1ccccc1)c1ccccc1 | < 4.30 | 7.72 | 7.40 | – |
| COc1cc([C@@H]2C(=O)N(c3ccc(O)cc3)[C@H]2c2ccc(O)cc2)cc(OC)c1OC (relative stereo) | < 4.30 | 4.64 | 5.83 | – |
| COc1ccc([C@@H]2[C@@H](c3ccc(C(O)c4ccc(OCCN5CCCC5)cc4)cc3)C(=O)N2c2ccc(OC)cc2)cc1 (stereo partly specified) | 5.33 | – | – | – |
| O=C1[C@@H](c2ccc(O)cc2)[C@H](c2ccc(O)cc2)N1c1ccc(O)cc1 (relative stereo) | < 4.30 | 5.32 | 5.96 | Activity [17]: inactive; pIC50 (Estrogen receptor [18]): 5.85 |
| COc1ccc([C@H]2CC(=O)N2c2cc(OC)c(OC)c(OC)c2)cc1 | – | – | – | IC50 (Estrogen receptor [14]): Not Active; Activity (MCF7 [19]): Active; IC50 (Estrogen receptor beta [16]): Not Active; Activity (MCF7 [20]): Active |
| O=C1[C@@H](c2ccc3ccccc3c2)[C@H](c2ccc(O)cc2)N1c1ccc(O)cc1 (relative stereo) | < 4.30 | 5.96 | 6.82 | – |
